{
  "source": "patent US5183828A",
  "about": "“Polyhydroxybenzoic acid derivatives” (priority 1990, dated 1993)",
  "key": {"isolated rabbit hearts": {"test_system": "isolated rabbit hearts", "test": "contractile function in isolated Langendorff rabbit heart after global ischemia and reperfusion, Table 9", "parameters": "species or system New Zealand white rabbits", "settings": "30 min global ischemia, 45 min reperfusion; bolus of 10 mM solution then 100 uM over first min; control 49 ± 9 (p<0.01)", "excerpt": "The compounds of this invention, as represented by the above formula, are useful in treating ischemia reperfusion injury, presumably because of their free-radical scavenging ability. The following protocol illustrates this activity on the ischemia produced during treatment of coronary artery disease.\n(§1) Female New Zealand white rabbits (2 kg) were heparinized and anesthetized and their hearts removed. The isolated rabbit hearts were perfused by the method of Langendorff at a constant pressure of 80 mm Hg with a Krebs-bicarbonate-buffered perfusate which was bubbled with 95% O2, 5 % CO2 gas. Chelex-treated perfusate was prepared by eluting the solution through a column of chelex 100 resin which was pre-equilibrated with 4 volumes of the perfusate solution. All perfusate solutions were routinely filtered through 0.8 um millipore filters prior to use. Heart rate and left ventricular developed pressure were measured using a fluid-filled balloon secured into the left ventrile. The balloon was connected to a Statham P23 DB pressure transducer via a hydraulic line and the transducer output amplified to a strip chart recorder. The ventricular volume was adjusted to achieve a left ventricular end disastolic pressure of 12 mmHg. During periods of global ischemia, the balloon was deflated and then reinflated 15 min after reflow. […]"}, "[1]": {"test_system": "DMPO-OH and DMPO-R radical adducts in coronary effluent of reperfused rabbit hearts", "test": "EPR spin trapping (DMPO) on coronary effluent of reperfused rabbit hearts", "parameters": "species or system New Zealand white rabbits", "description": "as §1, with “recorder.” for “recorder. The ventricular volume was adjusted to achieve a left ventricular end disastolic pressure of 12 mmHg. During periods of global ischemia, the balloon was deflated and then reinflated 15 min after reflow.”\nEPR spectra were recorded in flat cells at room temperature with either Varian E-9 or Bruker-IBM ER 300 spectrometers operating at X-band using 100 kHz modulation frequency and with TE 104 or TM 110 cavities. The microwave frequency and magnetic field were precisely measured using a Hewlett Packard 5342A Microwave Frequency counter and Bruker ER 035M NMR Gaussmeter. […] Quantitation of the free radical signals was performed by comparing the double integral of the observed signal to that of a known concentration of the tempo free radical in aqueous solution. […]"}, "[2]": {"test_system": "superoxide (xanthine oxidase reaction or human leukocytes)", "test": "effect on superoxide generation in vitro", "assay_type": "biochemical", "description": "The rate of production of superoxide from the xanthine oxidase reaction or from human leukocytes activated with phorbol myristate acetate was measured spectrophotometrically as the superoxide dismutase (SOD)-inhibitable portion of the reduction of ferricytochrome c or nitroblue tetrazolium (NBT). All assays were carried out at 37° C., pH 7.1. For the superoxide production by the xanthine oxidase reaction, a concentration of 0.04 U/ml of xanthine oxidase was used with 0.1 mM xanthine as substrate. Absorbances were measured in the presence of 30 U/ml of SOD and in its absence. The indicators were either ferricytochrome c or NBT in a concentration of 20 uM. The initial rate of reduction of NBT was monitored at 530 nm and that of cytochrome c at 550 nm. Extinction coefficients were 21.4×10 ^3 /M cm for cytochrome c and 17.9×10^3 /M cm for NBT. The initial rate of production of superoxide from leukocytes was measured using a concentration of 20 uM ferricytochrome c or NBT as described above in the presence and absence of 30 U/ml of SOD."}},
  "data": [
    {"smiles": "NC(=NO)c1cc(O)c(O)c(O)c1", "note": "[3,4,5-trihydroxybenzamidoxime]", "values": [
      {"measurement": "Left ventricular developed pressure", "setting": "isolated rabbit hearts", "value": "67±9", "unit": "mm Hg"},
      {"measurement": "DMPO-OH and DMPO-R EPR signals upon reperfusion", "setting": "[1]; 40 mM DMPO, post-ischemic reperfusion with drug", "value": "not observed"},
      {"measurement": "new radical EPR signal on reperfusion with drug", "setting": "[1]; with or without DMPO", "value": "appears as a single broad peak centered at 3480 G"},
      {"measurement": "Cytochrome C Reduction", "setting": "[2]; 10 uM compound", "value": 4.73, "unit": "nmol"},
      {"measurement": "NBT Reduction", "setting": "[2]; 10 uM compound", "value": 5.35, "unit": "nmol"},
      {"measurement": "Cytochrome C Reduction", "setting": "[2]; 20 uM compound", "value": 4.56, "unit": "nmol"},
      {"measurement": "NBT Reduction", "setting": "[2]; 20 uM compound", "value": 5.06, "unit": "nmol"},
      {"measurement": "Cytochrome C Reduction", "setting": "[2]; 50 uM compound", "value": 5.38, "unit": "nmol"},
      {"measurement": "NBT Reduction", "setting": "[2]; 50 uM compound", "value": 2.55, "unit": "nmol"},
      {"measurement": "Cytochrome C Reduction", "setting": "[2]; 100 uM compound", "value": 6.06, "unit": "nmol"},
      {"measurement": "NBT Reduction", "setting": "[2]; 100 uM compound", "value": 1.14, "unit": "nmol"},
      {"measurement": "Cytochrome C Reduction", "setting": "[2]; 200 uM compound", "value": 6.50, "unit": "nmol"},
      {"measurement": "NBT Reduction", "setting": "[2]; 200 uM compound", "value": 0.81, "unit": "nmol"},
      {"measurement": "Cytochrome C Reduction", "setting": "[2]; 300 uM compound", "value": 6.25, "unit": "nmol"},
      {"measurement": "NBT Reduction", "setting": "[2]; 300 uM compound", "value": 0.71, "unit": "nmol"},
      {"measurement": "Cytochrome C Reduction", "setting": "[2]; 500 uM compound", "value": 5.81, "unit": "nmol"},
      {"measurement": "NBT Reduction", "setting": "[2]; 500 uM compound", "value": 0.87, "unit": "nmol"}
    ]}
  ]
}
